# System: primary CLL cells
# Test: tetrazolium-based (MTS) cell viability assay on fresh primary CLL cells
# Design: species or system human
# Conditions: 10 nM to 10 μM, 3 days
# Excerpt: The viability data were normalized to untreated controls and were used to calculate IC50 values.
smiles,measurement,value
"CCS(=O)(=O)N1CCN(c2ccc(Nc3ncc(C(N)=O)c(NC4CC4)n3)cc2)CC1 [Compound 2, 4-(cyclopropylamino)-2-(4-(4-(ethylsulfonyl)piperazin-1-yl)phenylamino)pyrimidine-5-carboxamide]",single agent activity in CLL,single agent activity

# Reference: patent US20130237493A1, “COMBINATION THERAPY OF 4-(CYCLOPROPYLAMINO)-2-(4-(4-(ETHYLSULFONYL)PIPERAZIN-1-YL)PHENYLAMINO)PYRIMIDINE-5-CARBOXAMIDE AND FLUDARABINE” (Portola Pharmaceuticals, Inc., priority 2010, published 2013)
